In US8318809B2, “Compositions and methods for treating jellyfish stings” (priority 2006, dated 2012):
Where a name gives a salt, the structure may show the parent alone.

Assays:
[1] = system: sea wasp (Chiropsalmus quadumanus) stings; assay: Jellyfish sting test on inner forearm of human test subjects, sea wasp; format: in vivo; conditions: for maintenance of relief: 5% lidocaine in 80:20 water:propylene glycol, 5% benzocaine in 90:10 propylene glycol:acetone, control sites decreased after 2-3 h; for red rash at sting site: 5% lidocaine or 5% benzocaine formulations vs other treatments; for time to sting relief: 10% lidocaine in 50:50 water:propylene glycol, 10% benzocaine in 90:10 propylene glycol:acetone
From the text: These are the two most common types of stinging jellies that occur with frequency and/or regularity in normal swimming waters on the USA east coast north of Cape Canaveral.
(§1) Living healthy specimens were captured locally using trawls and dip-nets. They were maintained in flowing seawater aquariums (ca. 500 liters) for days-weeks; sea nettles maintained for long periods were fed live minnows (mummichugs).
Healthy, actively swimming jellyfish were used in all examples, and the same procedure was applied in all cases.
Stings from sea wasps were induced by manually holding a live specimen by its bell, and dragging the tentacles across the inner forearm of the test subject. […] Stings from the larger sea nettles were induced using tweezers to manually remove tentacles from living specimens and dragging them across the inner lower forearms of test subjects.
(§2) Products were applied to sting sites within 1-2 minutes unless otherwise noted below. […] Thus one forearm was used for each treatment effect, and each forearm included two sting sites: one received a treatment while the other served as an untreated control. Tests were either conducted simultaneously in duplicate using two subjects, or sequentially several hours apart using the same subject.

tongue = assay: Minimum response time to topically applied anesthetic on the tongue; format: in vivo, human; conditions: Example 5; 5 mg of pure compound applied to the tongue
Description: Two formulations were tested in the present example to test the minimum response time of the human body to topically applied lidocaine and benzocaine:
5 mg of pure benzocaine applied to the tongue

Solubility in water = format: physicochemical; conditions: Example 13 remark
[2] = stated as known; cited from earlier work
jellyfish stings [3] = assay: Jellyfish sting test, jellyfish species not stated; format: in vivo, human; conditions: Example 20; 4% lidocaine hydrochloride in water
From the text: […] Healthy, actively swimming jellyfish were used in all examples, and the same procedure was applied in all cases. The same human test subjects were used in all experiments, in order to have continuity and be able to qualitatively compare treatment effects among experimental dates.
(§3) Stings from sea wasps were induced by manually holding a live specimen by its bell, and dragging the tentacles across the inner forearm of the test subject. Sea-wasps caused immediate stinging sensations. Stings from the larger sea nettles were induced using tweezers to manually remove tentacles from living specimens and dragging them across the inner lower forearms of test subjects. Sea-nettle stings were of the same or somewhat more intensity as those of sea wasps, but were not felt until about 15 s after contact, perhaps because the tentacles have visibly thicker gelatinous coatings.
as §2

[4] = system: nematocysts of sea nettle tentacles; assay: Microscopy observations of nematocyst responses to product exposure; conditions: Example 11; pipetted onto tentacles in seawater, viewed at 60×; lidocaine as 10% solution in seawater
From the text: Tentacles were removed using tweezers from an actively swimming sea nettle, placed in a glass Petri dish in seawater collected from the jellyfish tank (same salinity), and viewed at 60× under a zoom stereomicroscope while various liquid chemicals were pipetted directly onto the tentacles.

fire ant bites = assay: Fire ant bite treatment, one subject; format: in vivo, human; conditions: Example 23
Description: The subject for this example had substantial experience with fire ant bites, with general symptoms of blistering, itching, pain associated with the bites. […] Subject received 7 fire ant bites while gardening outside. Subject applied the formulation to the seven bites approximately 15 minutes after the bites occurred.

jellyfish stings [5] = assay: Beach surveys of beachgoers stung by a jellyfish; format: in vivo, human
Description: The beach surveys were conducted on beachgoers that stated they had been stung by a jellyfish. All participants voluntarily filled out an 8 question survey.
Locations: Tybee Island, Ga., Saint Simons Island, Ga., Hilton Head, S.C., Jacksonville beach, Fla., Daytona beach, Fla.
Time to application: Varied based on the person surveyed. Average times from sting to treatment ranged from 5 to 15 minutes.
Application to relief: Most respondents noted that they began to feel relief at the 1 minute mark. Based on an average level of affected area (less than 10% body coverage) the respondents noted virtually all the pain subsided by the 5 minute mark. (Most of the respondents who noted “some relief” departed within 2 minutes, which is the approximately time it took them to fill out the survey. Some of these respondents later returned to report total relief, but this is not shown in the data below). The results are presented in Table 3 and FIG. 2, below (total respondents: 232).

chigger bites = assay: Chigger bite treatment, one subject; format: in vivo, human; conditions: Example 22; two bites per treatment; lidocaine as 4% solution in water
From the text: Subject received 6 chigger bites on inner thigh area. Subject applied the formulation to two of the chigger bites, treated two others with Chigger Rid®, a drug store product, and applied clear finger nail polish, a home remedy, to the final two bites.

[6] = system: sea nettle (hrysaora quinquecirrha) stings; assay: Jellyfish sting test on inner forearm of human test subjects, sea nettle; format: in vivo
From the text: Two genera of jellyfish were used in examples 2-19 described below: Chiropsalmus quadumanus, a cubomedusa and member of the Scyphozoa, also known as the sea wasp; and another scyphozoan jellyfish, hrysaora quinquecirrha, commonly called the sea nettle. These are the two most common types of stinging jellies that occur with frequency and/or regularity in normal swimming waters on the USA east coast north of Cape Canaveral.
as §1
For examples 3-19, with the exception of the commercially available spray products and the meat tenderizer paste solution, all of the other test solutions were in liquid form and were applied using a one milliliter pipetter and sterile tips.
For examples 3-19 below, the following general procedures were followed. Healthy, actively swimming jellyfish were used in all examples, and the same procedure was applied in all cases. The same human test subjects were used in all experiments, in order to have continuity and be able to qualitatively compare treatment effects among experimental dates.
as §3
Products were applied to sting sites within 1-2 minutes unless otherwise noted below. […] Thus one forearm was used for each treatment effect, and each forearm included two sting sites: one received a treatment while the other served as an untreated control. […]

[7] = 4% Lidocaine and water, pump or trigger spray, total respondents 232

With `N` [Ammonia] as the compound, how does the “treatment effect on sting pain” value ([1]; Example 3, sea wasps 2″ bell, meat tenderizer paste, ammonia and vinegar store-bought full strength, vs untreated control site) read?
The value was “increased the initial pain”.

With `CCOC(=O)c1ccc(N)cc1` [benzocaine] as the compound, how does the “onset of localized numbness” value (tongue) read?
The value was 30 s.

And the dissolves in water (Solubility in water)?
Its dissolves in water is “does not dissolve in water”.

And the solubility in water [2]?
Its solubility in water is “sparingly soluble in water”.

What about the maintenance of relief ([1]; Example 3) of the same compound?
The maintenance of relief was “maintained until the stinging sensation eventually decreased in control sites”.

And the “red rash at sting site” value ([1]; Example 3, sea wasps 2″ bell)?
The value was “substantially reduced”.

And the “time to sting relief” value ([1]; Example 4, sea wasp 3″ bell)?
The value was 60 to 90 s.

For `CCN(CC)CC(=O)Nc1c(C)cccc1C` [lidocaine hydrochloride], which “time to initial pain relief after application” value (jellyfish stings [3]) is on record?
Its value is “around one”.

Which results are given for `CCN(CC)CC(=O)Nc1c(C)cccc1C` [lidocaine]?
nematocyst firing [4]: did not cause nematocysts from a new tentacle to fire; blister formation (fire ant bites; 4% lidocaine and water applied approximately 15 minutes after the bites): typical blisters did not form; relief from pain and itching (fire ant bites; 4% lidocaine and water applied to 7 bites approximately 15 minutes after the bites): complete relief from pain and itching; onset of localized numbness (tongue): 30 s; maintenance of relief ([1]; Example 3): maintained until the stinging sensation eventually decreased in control sites; red rash at sting site ([1]; Example 3, sea wasps 2″ bell): substantially reduced; redness at the sting site ([1]; Example 4, 10% lidocaine formulation compared with 10% benzocaine formulation): appeared to reduce redness at the sting site more than the benzocaine formulation; time to sting relief ([1]; Example 4, sea wasp 3″ bell): 30 to 60 s; rash ([1]; Example 6, 10% compared to 5% lidocaine in 80:20 water:propylene glycol): somewhat less pronounced; pain relief ([1]; Example 6, both 5% and 10% lidocaine in 80:20 water:propylene glycol, sea wasp 3″ bell, compared to no treatment): substantial pain relief; time to substantial relief ([1]; Example 7, 10% lidocaine in 80:20 water:propylene glycol without acetic acid, sea wasps 2″ bell, untreated stinging lasted about 30 minutes): about 1 minute; relief after delayed application ([1]; Example 8, 10% lidocaine in 80:20 water:propylene glycol applied 5 min after sting): provided relief as though applied immediately; time to relief ([1]; Example 8, 10% lidocaine in 80:20 water:propylene glycol applied immediately, sea wasp 2″ bell): approximately 1 minute; time at which most respondents began to feel relief (jellyfish stings [5]; 4% Lidocaine and water spray, 5 to 15 minutes from sting to treatment): 1 min; time by which virtually all the pain subsided (jellyfish stings [5]; 4% Lidocaine and water spray, affected area less than 10% body coverage): ≤ 5 min; number of respondents: Much relief (jellyfish stings [5]; [7]): 128; number of respondents: No relief (jellyfish stings [5]; [7]): 0; number of respondents: Some relief (jellyfish stings [5]; [7]): 32; number of respondents: Total relief (jellyfish stings [5]; [7]): 72; itching of chigger bites after treatment (chigger bites): ceased itching within minutes of application with no further symptoms; performance as judged by the test subjects ([6]; Example 9, 10% lidocaine in water only compared with 10% lidocaine in 80:20 water:propylene glycol, sea nettle 6″ bell): slightly superior; acted faster by ([6]; Example 16, 15% lidocaine in water compared with 10% lidocaine in water, sea nettle 4″ bell): 10 to 15 s

Which “effect on the soothing effect of lidocaine” value ([6]; Example 12, 10% urea added to 10% lidocaine in water) does the source give for `NC(N)=O` [urea] here?
Its value is “did not appear to help or impede”.
